# Assay results from patent US10159687B2, “Prodrugs of vitamin K” (KAPPA BIOSCIENCE AS, priority 2012, dated 2018).
# Legend:
# [1] = Light stability in MCT oil (HPLC % area); assay type: physicochemical; details: for Purity after 1 h (%) / MK7 content in the sample after 1 h: light exposure 1 h; for Purity after 1 d (%) / MK7 content in the sample after 1 d: light exposure 1 d; for Purity after 3 d (%) / MK7 content in the sample after 3 d: light exposure 3 d; for MK7 content in the sample after 3 d: in %
# Protocol: The light stability of MK-7 was compared certain example compounds as hereinbefore described. Compounds were dissolved separately in ethyl acetate or MCT oil, transferred to glass vial (clear glass) and placed on the bench in a well lit laboratory (ordinary room lighting). […]
# (§1) The samples were analyzed by HPLC using aHPLC_KB_001, with the HPLC conditions detailed below.
# (§2) HPLC-DAD high pressure system: Agilent, LC system 1100 series
# (§3) Analytical column: Supelcosil C-18, 4.6×250 mm, 5 µm
# (§4) Column temperature: 40° C.
# (§5) Eluent system: 50% Solvent C: MeOH/Water with 0.1% v/v acetic acid (95/5 v/v) 50% Solvent D: Isopropanol
# (§6) The content of MK-7 and the MK-7 derivative in the samples have been quantified as % area of the total peak area in the chromatogram.
# [2] = Light stability in ethyl acetate (HPLC % area); assay type: physicochemical; details: for After 19 hrs % (content as % area of the total peak area) / MK-7 content in the sample after 19 hrs / Initial % (content as % area of the total peak area): in ethyl acetate; for After 19 hrs % (content as % area of the total peak area): after 19 hrs of light exposure (ordinary room lighting); for MK-7 content in the sample after 19 hrs: after 19 hrs of light exposure, MK-7 formed from the derivative; for Initial % (content as % area of the total peak area): clear glass vial, initial time point; for light stability compared with the diacetylated compound: light exposure, comparison in words
# Protocol: The light stability of MK-7 was compared certain example compounds as hereinbefore described. Compounds were dissolved separately in ethyl acetate or MCT oil, transferred to glass vial (clear glass) and placed on the bench in a well lit laboratory (ordinary room lighting). The samples were analyzed after 19 hours of light exposure or more.
# as §1, §2, §3, §4, §5, §6
# [3] = Rat study: MK-7 in plasma after oral gavage in sunflower oil; assay type: in vivo, male Sprague Dawley Rats; details: rats
# Protocol: Brief Procedure: Rats: Male Rats aged 6 to 8 weeks and weighing around 180 to 225 g. Animals were fasted overnight with free access to water. Animals were administered test substance by oral gavage with a dose of 100 μg/kg body weight (in recommended formulation and dose volume). Blood samples (150-200 μl) were collected at various time points during the next 48 hours post dose. To determine the bioavailability of different formulations containing MK-7 in male e Sprague Dawley Rats through gavage. Formulations were both dissolved in sunflower oil. Approximately 0.4 ml/animal (depending on the weight of the animal) via oral gavage (100 μg/kg body weight). There were 6 animals per formulation. Blood samples were collected from the tail vein of each animal and transferred into lithium heparin tubes at 2 and 12 hours post dose. Quantification of analyte in plasma was determined by LC-MS-MS analysis: Analyte: MK-7 in plasma. The data are mean of four measurements (low and high values are not included).
After 19 hrs % (content as % area of the total peak area) [2],MK-7 content in the sample after 19 hrs [2],Initial % (content as % area of the total peak area) [2],MK7 content in the sample after 1 h [1],MK7 content in the sample after 1 d [1],MK7 content in the sample after 3 d [1],MK7 content in the sample at start ([1]; start),"degradation after light exposure ([2]; in solution, after 19 hours of light exposure (below Table 1, ethyl acetate))",degradation after light exposure ([1]; after 24 hours of light exposure),Compound,Purity after 1 h (%) [1],Purity after 1 d (%) [1],Purity after 3 d (%) [1],Start purity from CoA (%) ([1]; start),light stability compared with the diacetylated compound [2],serum level 12 hours after administration compared with MK-7 (in words) [3]
87.6%,2.8%,91.5%,2.7%,4.1%,5.6,,,,"CC(C)=CCC/C(C)=C/CC/C(C)=C/CC/C(C)=C/CC/C(C)=C/CC/C(C)=C/CC/C(C)=C/Cc1c(C)c(OC(=O)c2ccccc2)c2ccccc2c1O [Example 2B, 3-((2E,6E,10E,14E,18E,22E)-3,7,11,15,19,23,27-heptamethyloctacosa-2,6,10,14,18,22,26-heptaen-1-yl)-4-hydroxy-2-methylnaphthalen-1-yl benzoate]",91.9%,84.6%,63.8%,91.5%,,
71.2%,23.4%,93.3%,13.1%,18.0%,23.65,4%,,,"CC(C)=CCC/C(C)=C/CC/C(C)=C/CC/C(C)=C/CC/C(C)=C/CC/C(C)=C/CC/C(C)=C/Cc1c(C)c(O)c2ccccc2c1OC(=O)c1ccccc1 [Example 2A, 2-((2E,6E,10E,14E,18E,22E)-3,7,11,15,19,23,27-heptamethyloctacosa-2,6,10,14,18,22,26-heptaen-1-yl)-4-hydroxy-3-methylnaphthalen-1-yl benzoate]",83.9%,72.5%,53.3%,93.3%,,
53.7%,,99.4%,,,,,approximately 50%,approximately 70%,"CC(C)=CCC/C(C)=C/CC/C(C)=C/CC/C(C)=C/CC/C(C)=C/CC/C(C)=C/CC/C(C)=C/CC1=C(C)C(=O)c2ccccc2C1=O [MK-7, 2-((2E,6E,10E,14E,18E,22E)-3,7,11,15,19,23,27-heptamethyloctacosa-2,6,10,14,18,22,26-heptaen-1-yl)-3-methylnaphthalene-1,4-dione, reference compound]",97.2%,73.5%,32.2%,99%,,

# Continued, compound first:
Compound,After 19 hrs % (content as % area of the total peak area) [2],MK-7 content in the sample after 19 hrs [2],Initial % (content as % area of the total peak area) [2],MK7 content in the sample after 1 h [1],MK7 content in the sample after 1 d [1],MK7 content in the sample after 3 d [1],MK7 content in the sample at start ([1]; start),"degradation after light exposure ([2]; in solution, after 19 hours of light exposure (below Table 1, ethyl acetate))",degradation after light exposure ([1]; after 24 hours of light exposure),Purity after 1 h (%) [1],Purity after 1 d (%) [1],Purity after 3 d (%) [1],Start purity from CoA (%) ([1]; start),light stability compared with the diacetylated compound [2],serum level 12 hours after administration compared with MK-7 (in words) [3]
"CCC(=O)Oc1c(C/C=C(\C)CC/C=C(\C)CC/C=C(\C)CC/C=C(\C)CC/C=C(\C)CC/C=C(\C)CCC=C(C)C)c(C)c(OC(=O)CCNC(=O)OC(C)(C)C)c2ccccc12 [Example 12, 3-((2E,6E,10E,14E,18E,22E)-3,7,11,15,19,23,27-heptamethyloctacosa-2,6,10,14,18,22,26-heptaen-1-yl)-2-methyl-4-(propionyloxy)naphthalen-1-yl 3-((tert-butoxycarbonyl)amino)propanoate]",,,,,,,,,,91.9%,89.4%,84.4%,92%,,
"CC(C)=CCC/C(C)=C/CC/C(C)=C/CC/C(C)=C/CC/C(C)=C/CC/C(C)=C/CC/C(C)=C/Cc1c(C)c(OC(=O)c2ccc(C(F)(F)F)cc2)c2ccccc2c1OC(=O)c1ccc(C(F)(F)F)cc1 [Example 13, 2-((2E,6E,10E,14E,18E,22E)-3,7,11,15,19,23,27-heptamethyloctacosa-2,6,10,14,18,22,26-heptaen-1-yl)-3-methylnaphthalene-1,4-diyl bis(4-(trifluoromethyl)benzoate)]",,,,,,,,,,83.6%,84.8%,79.6%,90.2%,,
"CCOP(=O)(OCC)Oc1c(C)c(C/C=C(\C)CC/C=C(\C)CC/C=C(\C)CC/C=C(\C)CC/C=C(\C)CC/C=C(\C)CCC=C(C)C)c(OC(=O)CC)c2ccccc12 [Example 9, 4-((diethoxyphosphoryl)oxy)-2-((2E,6E,10E,14E,18E,22E)-3,7,11,15,19,23,27-heptamethyloctacosa-2,6,10,14,18,22,26-heptaen-1-yl)-3-methylnaphthalen-1-yl propionate]",,,,,,,,,,90.1%,89.0%,84.2%,90.7%,,
"CCC(=O)Oc1c(C)c(C/C=C(\C)CC/C=C(\C)CC/C=C(\C)CC/C=C(\C)CC/C=C(\C)CC/C=C(\C)CCC=C(C)C)c(OC(=O)CC)c2ccccc12 [Example 7, 2-((2E,6E,10E,14E,18E,22E)-3,7,11,15,19,23,27-heptamethyloctacosa-2,6,10,14,18,22,26-heptaen-1-yl)-3-methylnaphthalene-1,4-diyl dipropionate]",97.7%,,98.5%,,,,,,,98.0%,96.7%,93.8%,98.5%,more stable than the diacetylated compound,the same
"CCOP(=O)(OC/C=C(\C)CC/C=C(\C)CC/C=C(\C)CC/C=C(\C)CC/C=C(\C)CC/C=C(\C)CCC=C(C)C)Oc1c(CC)c(C)c(OC(=O)c2ccccc2)c2ccccc12 (stereo not shown) [Example 4, 4-((ethoxy(((2E,6E,10E,14E,18E,22E)-3,7,11,15,19,23,27-heptamethyl-octacosa-2,6,10,14,18,22,26-heptaen-1-yl)oxy)phosphoryl)oxy)-3-ethyl-2-methylnaphthalen-1-yl benzoate]",,,,,,,,,,86.4%,84.4%,81.5%,86.7%,,
"CC(C)=CCC/C(C)=C/CC/C(C)=C/CC/C(C)=C/CC/C(C)=C/CC/C(C)=C/CC/C(C)=C/Cc1c(C)c(OC(=O)c2ccccc2)c2ccccc2c1OC(=O)c1ccccc1 [Example 1, 2-((2E,6E,10E,14E,18E,22E)-3,7,11,15,19,23,27-heptamethyl-octacosa-2,6,10,14,18,22,26-heptaen-1-yl)-3-methylnaphthalene-1,4-diyl dibenzoate]",95.4%,,98.5%,,,,,,,98.3%,97.3%,92.9%,98.5%,more stable than the diacetylated compound,
"CCC(=O)Oc1c(C/C=C(\C)CC/C=C(\C)CC/C=C(\C)CC/C=C(\C)CC/C=C(\C)CC/C=C(\C)CCC=C(C)C)c(C)c(OC(=O)[C@@H](NC(=O)OC(C)(C)C)C(C)C)c2ccccc12 [Example 10, 3-((2E,6E,10E,14E,18E,22E)-3,7,11,15,19,23,27-heptamethyloctacosa-2,6,10,14,18,22,26-heptaen-1-yl)-2-methyl-4-(propionyloxy)naphthalen-1-yl (tert-butoxycarbonyl)-L-valinate]",,,,,,,,,,92.7%,92.0%,89.0%,93.5%,,
